Laboratory results: patent publication US20260041744A1, “Methods for Treating Pompe Disease” (Amicus Therapeutics, Inc., priority 2022, published 2026)

Assays:
Gaa KO mice = assay: Muscle biomarkers LAMP1, LC3, dysferlin in Gaa KO mice (staining, western blot); assay type: in vivo, mouse
Description: The therapeutic effects of ATB200 and miglustat were evaluated and compared against those of Alglucosidase alfa in Gaa KO mice. For the study, male Gaa KO (3-to 4-month old) and age-matched wild-type (WT) mice were used. Alglucosidase alfa was administered via bolus tail vein intravenous (IV) injection. In the co-administration regimen, miglustat was administered via oral gavage (PO) 30 minutes prior to the IV injection of ATB200. Treatment was given biweekly. Treated mice were sacrificed after 14 days from the last administration and various tissues were collected for further analysis. Table 11 summarizes the study design:
Tissue samples were also analyzed for biomarker changes following the methods discussed in: Khanna R, et al. (2012), “The pharmacological chaperone AT2220 increases recombinant human acid α-glucosidase uptake and glycogen reduction in a mouse model of Pompe disease,” Plos One 7(7): e40776; and Khanna, R et al. (2014), “The Pharmacological Chaperone AT2220 Increases the Specific Activity and Lysosomal Delivery of Mutant Acid a-Glucosidase, and Promotes Glycogen Reduction in a Transgenic Mouse Model of Pompe Disease,” PLOS ONE 9(7): e102092.
Similarly, intense LC3-positive aggregates in the muscle fibers of untreated Gaa KO mice signify the presence of autophagic zones and autophagy build-up. […] A similar observation was made when the expression of LC3 was assessed using western blot. […] In comparison, the effect of alglucosidase alfa on autophagy was modest.
Dysferlin, a protein involved in membrane repair and whose deficiency/mistrafficking is associated with a number of muscular dystrophies, was also assessed.

[1] = system: adult subjects with late-onset Pompe disease (LOPD); assay: Study ATB200-03 (PROPEL): PROMIS-Physical Function; assay type: in vivo, human; details: for CHG to Week 52 in PROMIS-Physical Function total score, LS Mean / CHG to Week 52 in PROMIS-Physical Function total score, LS Mean Treatment Difference: MMRM; for CHG to Week 52 in PROMIS-Physical Function total score, LS Mean: actual time point of assessments; for PROMIS-Physical Function Short Form 20a total score CHG, LS means (SE) / PROMIS-Physical Function Short Form 20a total score CHG, Difference of LS means (SE) (cipaglucosidase alfa/miglustat − alglucosidase alfa/placebo): Week 52; for CHG to Week 52 in PROMIS-Physical Function total score, LS Mean Treatment Difference: actual time point; for PROMIS physical function outcome: overall and ERT-experienced populations
Description: The test for the primary endpoint was conducted first at the 1-sided 0.025 significance level, and if significant, the ordered key secondary endpoints were similarly tested at the same significance level. The statistical significance of the key secondary endpoints was interpreted following a hierarchical testing order, each at the 1-sided alpha level of 0.025. […] Primary analyses of efficacy were performed using the mixed-effect model for repeated measures (MMRM) for 6MWD in Intent-to-treat Observed Population (ITT) that includes all available, observed data without any missing data imputation (ITT-OBS) and analysis of covariance (ANCOVA) for all other endpoints in the Intent-to-Treat-Last Observation Carried Forward (ITT-LOCF) Population. A nonparametric randomization based ANCOVA was specified as the first sensitivity analysis for 6MWD and FVC. […] For the purposes of data presentation in this document, 2-sided p-values are reported hereafter, except as otherwise noted.

[2] = system: adult subjects with late-onset Pompe disease (LOPD); assay: Study ATB200-03 (PROPEL): urinary hexose tetrasaccharide (Hex4/Glc4); assay type: in vivo, human; details: for urinary Hex4 reduction vs alglucosidase alfa: week 52
[3] = system: adult subjects with late-onset Pompe disease (LOPD); assay: Study ATB200-03: global test and responder analyses on 6MWD, FVC, MMT; assay type: in vivo, human; details: Excluding Subject 4005-2511; change from baseline to Week 52; 2-sided p 0.010
From the text: To support the interpretation of clinical benefit, a composite subject-level response was defined based on the totality of the treatment outcome data. Subjects were classified by an ordinal response variable consisting of significant improvement, moderate improvement, or minor/no improvement based on treatment outcomes.
Thresholds for clinically relevant changes for 6MWD and FVC in Pompe specifically are not well established, however a large body of data exists from other neuromuscular and chronic respiratory diseases, especially interstitial pulmonary fibrosis (IPF). […] Accordingly, these thresholds were applied to analyses of Study ATB200-03 data.
Additional post hoc patient-level analyses were conducted using these thresholds for 6MWD (±6%) and FVC (±3%) separately and combined.

[4] = Week 52-LOCF, ERT-experienced Population
[5] = Week 52-LOCF, ERT-naïve Subjects excluding Subject 4005-2511
[6] = Week 52-LOCF, ITT excluding Subject 4005-2511

## ATB200/miglustat: two-component therapy: cipaglucosidase alfa (ATB200) administered in conjunction with miglustat (AT2221), a stabilizer of cipaglucosidase alfa
Gaa KO mice; mouse, in vivo
  LC3 II level / autophagy, western blot: significant decrease in levels of LC3 II
Gaa KO mice; vastus lateralis
  LAMP1-positive vesicles in muscle fibers: led to more fibers with normalized LAMP1 level
Gaa KO mice; vs alglucosidase alfa
  LC3-positive aggregates in muscle fibers: preferentially reduced
  dysferlin localisation in muscle fibers: able to restore dysferlin to the sarcolemma in a greater number of muscle fibers
[1]; Baseline, ITT, ERT-naïve Subjects excluding Subject 4005-2511
  PROMIS-Physical Function Short Form 20a total score Absolute Value, Median: 76.00
[1]; Baseline, ITT, ERT-naïve Subjects excluding Subject 4005-2511, score 20 to 100, higher = less impact
  PROMIS-Physical Function Short Form 20a total score Absolute Value, Mean: 74.65
[1]; ERT-experienced Population
  mean (SD) change in PROMIS-Physical Function total score from baseline to Week 52: 1.8 (7.18)
[1]; ERT-naïve excluding Subject 4005-2511
  mean (SD) change in PROMIS-Physical Function total score from baseline to Week 52: 2.5 (8.62)
[1]; ITT-LOCF, ERT-naïve Subjects excluding Subject 4005-2511
  Change in PROMIS-Physical Function total score baseline to Week 52, LS means (SE) from ANCOVA: 1.87 (1.917)
[1]; ITT-OBS excluding Subject 4005-2511 (overall)
  CHG to Week 52 in PROMIS-Physical Function total score, LS Mean: 2.2
[1]; ITT-OBS excluding Subject 4005-2511, ERT-naïve Subjects
  CHG to Week 52 in PROMIS-Physical Function total score, LS Mean: 2.6
[1]; ITT-OBS, ERT-experienced Subjects
  CHG to Week 52 in PROMIS-Physical Function total score, LS Mean: 2.0
[1]; [4]
  PROMIS-Physical Function Short Form 20a total score Absolute Value, Mean (SD): 66.19 (12.325)
  PROMIS-Physical Function Short Form 20a total score Absolute Value, Median: 66.00
  PROMIS-Physical Function Short Form 20a total score CHG, Mean (SD): 1.76 (7.179)
  PROMIS-Physical Function Short Form 20a total score CHG, Median: 0.50
[1]; [5]
  PROMIS-Physical Function Short Form 20a total score Absolute Value, Mean: 77.15
  PROMIS-Physical Function Short Form 20a total score Absolute Value, Median: 77.50
  PROMIS-Physical Function Short Form 20a total score CHG (change from baseline), Mean: 2.50
  PROMIS-Physical Function Short Form 20a total score CHG (change from baseline), Median: 0.00
[1]; [6]
  PROMIS-Physical Function Short Form 20a total score Absolute Value, Mean (SD): 68.80 (12.954)
  PROMIS-Physical Function Short Form 20a total score Absolute Value, Median: 68.00
  PROMIS-Physical Function Short Form 20a total score CHG, Mean (SD): 1.94 (7.498)
  PROMIS-Physical Function Short Form 20a total score CHG, Median: 0.00
[1]; ANCOVA, ITT-LOCF excluding Subject 4005-2511
  PROMIS-Physical Function Short Form 20a total score CHG, LS means (SE): 1.98 (0.921)
[1]; ANCOVA, ITT-LOCF excluding Subject 4005-2511, 2-sided p 0.276
  PROMIS-Physical Function Short Form 20a total score CHG, Difference of LS means (SE) (cipaglucosidase alfa/miglustat − alglucosidase alfa/placebo): 1.87 (1.706)
[1]; ANCOVA, ITT-LOCF, ERT-experienced Population
  PROMIS-Physical Function Short Form 20a total score CHG, LS means (SE): 1.90 (1.071)
[1]; ANCOVA, ITT-LOCF, ERT-experienced Population, 2-sided p 0.110
  PROMIS-Physical Function Short Form 20a total score CHG, Difference of LS means (SE) (cipaglucosidase alfa/miglustat − alglucosidase alfa/placebo): 3.14 (1.948)
[1]; cipaglucosidase alfa/miglustat − alglucosidase alfa/placebo, ITT-LOCF, ANCOVA, 2-sided p 0.426
  LS Mean Treatment Difference (SE), CHG to Week 52 in PROMIS-Physical Function total score: 1.37 (1.714)
[1]; cipaglucosidase alfa/miglustat − alglucosidase alfa/placebo, ITT-LOCF, ERT-naïve Subjects excluding Subject 4005-2511
  Change in PROMIS-Physical Function total score baseline to Week 52, Difference of LS means (SE) from ANCOVA: −5.09 (4.288)
[1]; cipaglucosidase alfa/miglustat − alglucosidase alfa/placebo, ITT-OBS excluding Subject 4005-2511 (overall)
  CHG to Week 52 in PROMIS-Physical Function total score, LS Mean Treatment Difference: 2.5
[1]; cipaglucosidase alfa/miglustat − alglucosidase alfa/placebo, ITT-OBS excluding Subject 4005-2511, ERT-naïve Subjects
  CHG to Week 52 in PROMIS-Physical Function total score, LS Mean Treatment Difference: −3.1
[1]; cipaglucosidase alfa/miglustat − alglucosidase alfa/placebo, ITT-OBS, ERT-experienced Subjects
  CHG to Week 52 in PROMIS-Physical Function total score, LS Mean Treatment Difference: 3.5
[1]
  PROMIS physical function outcome: PROMIS physical function numerically favored ATB200/miglustat treatment
[1]; listed as AT-GAA
  PROMIS physical function outcome: improved numerically more than alglucosidase alfa treated patients
[1]; overall population
  mean (SD) change in PROMIS-Physical Function total score from baseline to Week 52: 1.9 (7.50)
[2]; combined ERT switch and ERT naïve population
  mean change in urine Hex-4 after 52 weeks: −31.5%
[2]
  urinary Hex4 reduction vs alglucosidase alfa: reductions in CK and urinary Hex4 were significantly greater with ATB200/miglustat treatment at week 52
[2]; listed as AT-GAA
  urinary Hex4 reduction vs alglucosidase alfa: significantly favored AT-GAA compared to alglucosidase alfa
[2]; listed as cipaglucosidase alfa/miglustat
  urinary Hex4 reduction vs alglucosidase alfa: reductions in biomarkers of muscle damage (CK) and disease substrate (Hex4) also were significantly greater with cipaglucosidase alfa/miglustat compared with alglucosidase alfa
[3]
  Wilcoxon rank sum test on sum of ranks for 6MWD and % predicted FVC: Mean Score: 66.5
